# Activity calls are given as the source filed them. The calls are words filed in the database; no cut-off is given here.
# Tests used:
# Klebsiella pneumoniae [1] = assay: Ratio of MBC to MIC for Klebsiella pneumoniae BAA-1706 after 18 to 20 hrs in aerobic condition by CLSI-based broth microdilution assay; assay type: functional
# Acinetobacter baumannii [2] = assay: microbe, parasite or virus in culture; details: ATCC BAA 1747
# Description: Antibacterial activity against Acinetobacter baumannii ATCC BAA 1747 after 18 to 20 hrs in aerobic condition by CLSI-based broth microdilution assay
# Escherichia coli [3] = assay: Ratio of MBC to MIC for Escherichia coli ATCC 25922 clinical isolates; assay type: functional
# Staphylococcus aureus [4] = assay: Antibacterial activity against Methicillin-resistant Staphylococcus aureus USA700-NRS386 clinical isolates after 18 to 20 hrs in aerobic condition by CLSI protocol based broth microdilution assay; assay type: functional
# Staphylococcus aureus [5] = assay: Antibacterial activity against linezolid-resistant/Methicillin-resistant Staphylococcus aureus NRS119 clinical isolates after 18 to 20 hrs in aerobic condition by CLSI protocol based broth microdilution assay; assay type: functional
# [6] = system: Staphylococcus epidermidis; assay: Ratio of MBC to MIC for Staphylococcus epidermidis NRS101 clinical isolates; assay type: functional
# Staphylococcus aureus [7] = assay: Bactericidal activity against methicillin-resistant Staphylococcus aureus NRS123-USA400 clinical isolates at 5 times MIC incubated over 24 hrs followed by replating on tryptic soy agar plate and further incubated for 18 to 20 hrs by time kill assay; assay type: functional, organism-based
# Acinetobacter baumannii [8] = assay: Ratio of MBC to MIC for Acinetobacter baumannii NR 17786 clinical isolates; assay type: functional
# Acinetobacter baumannii [9] = assay: Antibacterial activity against Acinetobacter baumannii ATCC BAA 1141 clinical isolates after 18 to 20 hrs in aerobic condition by CLSI-based broth microdilution assay; assay type: functional
# [10] = system: Enterobacter cloacae subsp. cloacae; assay: Ratio of MBC to MIC for Enterobacter cloacae subsp. cloacae ATCC BAA-1143 clinical isolates; assay type: functional
# Streptococcus pneumoniae [11] = assay: Ratio of MBC to MIC for cephalosporin-resistant Streptococcus pneumoniae ATCC 51916 clinical isolates; assay type: functional
# Escherichia coli [12] = assay: Antibacterial activity against carbapenem-resistant Escherichia coli BAA-2469 clinical isolates after 18 to 20 hrs in aerobic condition by CLSI-based broth microdilution assay; assay type: functional
# Listeria monocytogenes [13] = assay: Ratio of MBC to MIC for Listeria monocytogenes ATCC 19111 clinical isolates; assay type: functional
# Escherichia coli [14] = assay: Antibacterial activity against Escherichia coli ATCC 25922 clinical isolates after 18 to 20 hrs in aerobic condition by CLSI-based broth microdilution assay; assay type: functional
# Staphylococcus aureus [15] = assay: Antibacterial activity against methicillin-resistant Staphylococcus aureus NRS384-USA300 clinical isolates after 18 to 20 hrs in aerobic condition by CLSI protocol based broth microdilution assay; assay type: functional
# Clostridioides difficile = assay: Ratio of MBC to MIC for Clostridium difficile ATCC BAA 1870; assay type: functional
# Listeria monocytogenes [16] = assay: Antibacterial activity against Listeria monocytogenes ATCC 19111 after 18 to 20 hrs in aerobic condition by CLSI-based broth microdilution assay; assay type: functional
# Salmonella enterica = assay: Antibacterial activity against Salmonella enterica NR-170 clinical isolates after 18 to 20 hrs in aerobic condition by CLSI-based broth microdilution assay; assay type: functional
# Pseudomonas aeruginosa [17] = assay: Antibacterial activity against Pseudomonas aeruginosa ATCC 15442 clinical isolates after 18 to 20 hrs in aerobic condition by CLSI-based broth microdilution assay; assay type: functional
# Acinetobacter baumannii [18] = assay: Ratio of MBC to MIC for Acinetobacter baumannii NR 17785 clinical isolates; assay type: functional
# Salmonella typhimurium = assay: Ratio of MBC to MIC for Salmonella typhimurium ATCC 700720 clinical isolates; assay type: functional, Salmonella enterica subsp. enterica serovar Typhimurium
# Enterococcus faecalis [19] = assay: Ratio of MBC to MIC for vancomycin-resistant Enterococcus faecalis ATCC 51299 clinical isolates; assay type: functional
# Shigella flexneri [20] = assay: Ratio of MBC to MIC for Shigella flexneri ATCC 9199 clinical isolates; assay type: functional
# Shigella flexneri [21] = assay: Antibacterial activity against Shigella flexneri ATCC 9199 clinical isolates after 18 to 20 hrs in aerobic condition by CLSI-based broth microdilution assay; assay type: functional
# Pseudomonas aeruginosa [22] = assay: microbe, parasite or virus in culture; details: ATCC 9027
# Description: Antibacterial activity against Pseudomonas aeruginosa ATCC 9027 clinical isolates after 18 to 20 hrs in aerobic condition by CLSI-based broth microdilution assay
# Pseudomonas aeruginosa [23] = assay: Ratio of MBC to MIC for Pseudomonas aeruginosa ATCC 15442 clinical isolates; assay type: functional
# Escherichia coli [24] = assay: Inhibition of 6His tagged Escherichia coli UPPP expressed in Escherichia coli C41(DE3) cells preincubated for 15 mins followed by FPP substrate addition and measured after 20 mins by malachite green reagent based assay
# Enterococcus faecium [25] = assay: Ratio of MBC to MIC for vancomycin-resistant Enterococcus faecium ATCC 700221 clinical isolates; assay type: functional
# Klebsiella pneumoniae [26] = assay: Ratio of MBC to MIC for Klebsiella pneumoniae BAA-1144 clinical isolates; assay type: functional
# Streptococcus pneumoniae [27] = assay: Antibacterial activity against methicillin-resistant Streptococcus pneumoniae ATCC 700677 clinical isolates after 18 to 20 hrs by CLSI-based broth microdilution assay; assay type: functional
# Escherichia coli [28] = assay: Antibacterial activity against carbapenem-resistant Escherichia coli BAA-2452 clinical isolates after 18 to 20 hrs in aerobic condition by CLSI-based broth microdilution assay; assay type: functional
# Salmonella enteritidis [29] = assay: Antibacterial activity against Salmonella enteritidis ATCC 14028 clinical isolates after 18 to 20 hrs in aerobic condition by CLSI-based broth microdilution assay; assay type: functional, Salmonella enterica subsp. enterica serovar Enteritidis; details: Salmonella enterica
# Escherichia coli [30] = assay: Antibacterial activity against Escherichia coli BW25113 clinical isolates after 18 to 20 hrs in aerobic condition by CLSI-based broth microdilution assay; assay type: functional
# Escherichia coli [31] = assay: microbe, parasite or virus in culture; details: ATCC 1411
# Description: Antibacterial activity against Escherichia coli ATCC 1411 clinical isolates after 18 to 20 hrs in aerobic condition by CLSI-based broth microdilution assay
# Klebsiella pneumoniae [32] = assay: Antibacterial activity against carbapenem-resistant Klebsiella pneumoniae ATCC BAA-1705 clinical isolates after 18 to 20 hrs in aerobic condition by CLSI-based broth microdilution assay; assay type: functional
# Escherichia coli [33] = assay: Antimicrobial activity against Escherichia coli JW55031 harboring deltatolC mutant after 18 to 20 hrs in aerobic condition by CLSI protocol based broth microdilution assay; assay type: functional
# Enterococcus faecium [34] = assay: Antibacterial activity against vancomycin-resistant Enterococcus faecium ATCC 700221 clinical isolates after 18 to 20 hrs in aerobic condition by CLSI-based broth microdilution assay; assay type: functional
# Enterococcus faecalis [35] = assay: Antibacterial activity against vancomycin-resistant Enterococcus faecalis ATCC 51299 clinical isolates after 18 to 20 hrs in aerobic condition by CLSI-based broth microdilution assay; assay type: functional
# Salmonella enteritidis [36] = assay: Antibacterial activity against Salmonella enteritidis ATCC 13076 clinical isolates after 18 to 20 hrs in aerobic condition by CLSI-based broth microdilution assay; assay type: functional, Salmonella enterica subsp. enterica serovar Enteritidis; details: Salmonella enterica
# [37] = system: Staphylococcus epidermidis; assay: Antibacterial activity against Staphylococcus epidermidis NRS101 after 18 to 20 hrs in aerobic condition by CLSI-based broth microdilution assay; assay type: functional
# Escherichia coli [38] = assay: Antibacterial activity against Escherichia coli ATCC 35150 clinical isolates after 18 to 20 hrs in aerobic condition by CLSI-based broth microdilution assay; assay type: functional
# Staphylococcus aureus [39] = assay: Antibacterial activity against Methicillin-sensitive Staphylococcus aureus NRS107 clinical isolates after 18 to 20 hrs in aerobic condition by CLSI protocol based broth microdilution assay; assay type: functional
# Streptococcus pneumoniae [40] = assay: Antibacterial activity against cephalosporin-resistant Streptococcus pneumoniae ATCC 51916 clinical isolates after 18 to 20 hrs by CLSI-based broth microdilution assay; assay type: functional
smiles,measurement,setting,value
C/C(=N\NC(=N)N)c1cnn(-c2ccc(C#CC3CCCC3)cc2)c1C,Ratio,Klebsiella pneumoniae [1],>=1
same,MIC,Acinetobacter baumannii [2],4 µg/mL
same,Ratio,Escherichia coli [3],>=1
same,MIC,Staphylococcus aureus [4],1 µg/mL
same,MIC,Staphylococcus aureus [5],1 µg/mL
same,Ratio,[6],<3
same,Activity,Staphylococcus aureus [7],Active
same,Ratio,Acinetobacter baumannii [8],>=1
same,MIC,Acinetobacter baumannii [9],4 µg/mL
same,Ratio,[10],> 1
same,Ratio,Streptococcus pneumoniae [11],<3
same,MIC,Escherichia coli [12],4 µg/mL
same,Ratio,Listeria monocytogenes [13],<3
same,MIC,Escherichia coli [14],4 µg/mL
same,MIC,Staphylococcus aureus [15],1 µg/mL
same,Ratio,Clostridioides difficile,<3
same,MIC,Listeria monocytogenes [16],0.5 µg/mL
same,MIC,Salmonella enterica,8 µg/mL
same,MIC,Pseudomonas aeruginosa [17],32 µg/mL
same,Ratio,Acinetobacter baumannii [18],>=1
same,Ratio,Salmonella typhimurium,>=1
same,Ratio,Enterococcus faecalis [19],<3
same,Ratio,Shigella flexneri [20],>=1
same,MIC,Shigella flexneri [21],8 µg/mL
same,MIC,Pseudomonas aeruginosa [22],16 µg/mL
same,Ratio,Pseudomonas aeruginosa [23],>=1
same,inhibition,Escherichia coli [24],inactive
same,Ratio,Enterococcus faecium [25],<3
same,Ratio,Klebsiella pneumoniae [26],>=1
same,MIC,Streptococcus pneumoniae [27],0.5 µg/mL
same,MIC,Escherichia coli [28],4 µg/mL
same,MIC,Salmonella enteritidis [29],8 µg/mL
same,MIC,Escherichia coli [30],8 µg/mL
same,MIC,Escherichia coli [31],8 µg/mL
same,MIC,Klebsiella pneumoniae [32],8 µg/mL
same,MIC,Escherichia coli [33],2 µg/mL
same,MIC,Enterococcus faecium [34],1 µg/mL
same,MIC,Enterococcus faecalis [35],0.5 µg/mL
same,MIC,Salmonella enteritidis [36],4 µg/mL
same,MIC,[37],1 µg/mL
same,MIC,Escherichia coli [38],4 µg/mL
same,MIC,Staphylococcus aureus [39],1 µg/mL
same,MIC,Streptococcus pneumoniae [40],1 µg/mL
C/C(=N\NC(=N)N)c1cnn(-c2ccc(C#CC3CCCCC3)cc2)c1C,Ratio,Klebsiella pneumoniae [1],>=1
same,MIC,Acinetobacter baumannii [2],4 µg/mL
same,Ratio,Escherichia coli [3],>=1
same,MIC,Staphylococcus aureus [4],2 µg/mL
same,MIC,Staphylococcus aureus [5],2 µg/mL
same,Ratio,[6],<3
same,Activity,Staphylococcus aureus [7],Active
same,Ratio,Acinetobacter baumannii [8],>=1
same,MIC,Acinetobacter baumannii [9],4 µg/mL
same,Ratio,[10],> 1
same,Ratio,Streptococcus pneumoniae [11],<3
same,MIC,Escherichia coli [12],4 µg/mL
same,Ratio,Listeria monocytogenes [13],<3
same,MIC,Escherichia coli [14],4 µg/mL
same,MIC,Staphylococcus aureus [15],2 µg/mL
same,Ratio,Clostridioides difficile,<3
same,MIC,Listeria monocytogenes [16],2 µg/mL
same,MIC,Salmonella enterica,8 µg/mL
same,MIC,Pseudomonas aeruginosa [17],32 µg/mL
same,Ratio,Acinetobacter baumannii [18],>=1
same,Ratio,Salmonella typhimurium,>=1
same,Ratio,Enterococcus faecalis [19],<3
same,Ratio,Shigella flexneri [20],>=1
same,MIC,Shigella flexneri [21],8 µg/mL
same,MIC,Pseudomonas aeruginosa [22],16 µg/mL
same,Ratio,Pseudomonas aeruginosa [23],>=1
same,inhibition,Escherichia coli [24],inactive
same,Ratio,Enterococcus faecium [25],<3
same,Ratio,Klebsiella pneumoniae [26],>=1
same,MIC,Streptococcus pneumoniae [27],2 µg/mL
same,MIC,Escherichia coli [28],8 µg/mL
same,MIC,Salmonella enteritidis [29],32 µg/mL
same,MIC,Escherichia coli [30],4 µg/mL
same,MIC,Escherichia coli [31],8 µg/mL
same,MIC,Klebsiella pneumoniae [32],8 µg/mL
same,MIC,Escherichia coli [33],2 µg/mL
same,MIC,Enterococcus faecium [34],1 µg/mL
same,MIC,Enterococcus faecalis [35],2 µg/mL
same,MIC,Salmonella enteritidis [36],16 µg/mL
same,MIC,[37],2 µg/mL
same,MIC,Escherichia coli [38],4 µg/mL
same,MIC,Staphylococcus aureus [39],2 µg/mL
same,MIC,Streptococcus pneumoniae [40],2 µg/mL

# — ChEMBL document CHEMBL4334464, “From Phenylthiazoles to Phenylpyrazoles: Broadening the Antibacterial Spectrum toward Carbapenem-Resistant Bacteria” (J Med Chem, 2019)
